In US20080214844A1, “Icaritin and desmethylicaritin as anti-cancer agents” (priority 2007, published 2008):

Tests used:
human lung cancer = experiment: Human lung cancer xenograft model; format: in vivo
Excerpt: (§1) ICA was extensively biotransformed and converted to at least three metabolites: Icariside II (molecule weight=514), Icaritin (molecule weight=368), and Desmethylicaritin (molecule weight=354). […] Icaritin and Desmethylicaritin have huge potentials to be developed as novel and broad anti cancer drugs.
FIG. 2. Response of Human Lung tumor to treatment with Icaritin and Desmethyliciarityn.

SK-MEL-5 = experiment: MTT cell viability assay, SK-MEL-5; format: cell-based, human; settings: Homo sapiens, 72 h, SK-MEL-5, Skin, 3 days culture
Description: (§2) 26 cancer cell lines were grown in normal growth medium in the presence of different concentrations Icaritin or Desmethylicaritin. After culture for 3 days, the cell viability was then measured by an MTT assay. […] Some EC50s were lower than 10 uM for these two compounds. […] Whereas, normal human mammary gland epithelial cells (MCF10A) were not sensitive to Icaritin and Desmethylicaritin. These cells grew well when treated with these two compounds at a concentration of 50 uM.

LNCAP = experiment: MTT cell viability assay, LNCAP; format: cell-based, human; settings: Homo sapiens, 72 h, Prostate, 3 days culture
Description: as §2

IGROV1 = experiment: MTT cell viability assay, IGROV1; format: cell-based, human; settings: Homo sapiens, IGROV-1, 72 h, IGROV1, Ovary, 3 days culture
Description: as §2

Raji = experiment: MTT cell viability assay, Raji; format: cell-based, human; settings: Homo sapiens, 72 h, Lymphoma, 3 days culture
Description: as §2

Caki-1 = experiment: MTT cell viability assay, Caki-1; format: cell-based, human; settings: Homo sapiens, 72 h, Caki-1, Kidney, 3 days culture
Description: as §2

HCT-116 = experiment: MTT cell viability assay, HCT-116; format: cell-based, human; settings: Homo sapiens, 72 h, HCT-116, Colon, 3 days culture
Description: as §2

MCF-10a = experiment: MTT cell viability assay, MCF-10a normal breast epithelial cells; format: cell-based, human
Description: as §2

PC3 = experiment: MTT cell viability assay, PC3; format: cell-based, human; settings: Homo sapiens, PC-3, 72 h, PC3, Prostate, 3 days culture
Description: as §2

D145 = experiment: MTT cell viability assay, D145; format: cell-based, human; settings: Homo sapiens, 72 h, D145, Prostate, 3 days culture
Description: as §2

ACHN = experiment: MTT cell viability assay, ACHN; format: cell-based, human; settings: Homo sapiens, 72 h, Kidney, 3 days culture
Description: as §2

[1] = test system: LNCaP cells and MDA-MB-231 cells; experiment: Synthesis of lipid classes in cancer cells; format: cell-based, human
Description: Icaritin and Desmethylicaritin decrease Lipogenesis in Prostate and Breast Cancer cells via inhibition of fatty acid synthase (FAS) Activity. Protein extracts from LNCaP cells, which had been ^14C-labeled with malonyl-CoA, were pretreated with these two compounds. A concentration of 0.5 μM Icaritin or Desmethylicaritin reduced the in vitro enzymatic FAS activity to less than 50%. […] Consistent with their FAS inhibitory effect, inhibition of lipogenesis by Icaritin and Desmethylicaritin affected the synthesis of phospholipids (including phosphatidylcholine, phosphatidylethanolamine, phosphatidylinositol, phosphatidylserine, and sphingomyelin) and of triglycerides in LNCaP cells and MDA-MB-231 cells. […] Cholesterol synthesis, however, accounts for less than 10% of the total lipogenic activity in LNCaP and MDA-MB-231 cancer cells, whereas ˜75 and 15% of the lipogenic activity in these cells represents phospholipid and triglyceride synthesis, respectively.

CCL-247 = experiment: MTT cell viability assay, CCL-247; format: cell-based, human; settings: Homo sapiens, 72 h, CCL-247, Colon, 3 days culture
Description: as §2

G-361 = experiment: MTT cell viability assay, G-361; format: cell-based, human; settings: Homo sapiens, 72 h, G-361, Skin, 3 days culture
Description: as §2

MDA-MB-435 = experiment: MTT cell viability assay, MDA-MB-435; format: cell-based, human; settings: Homo sapiens, 72 h, MDA-MB-435, Breast, 3 days culture
Description: as §2

human prostate cancer = experiment: Human prostate cancer xenograft model; format: in vivo
Excerpt: as §1
FIG. 1. Response of Human Prostate tumor to treatment with Icaritin and Desmethyliciarityn.

HT29 = experiment: MTT cell viability assay, HT29; format: cell-based, human; settings: Homo sapiens, HT-29, 72 h, HT29, Colon, 3 days culture
Description: as §2

LoVo = experiment: MTT cell viability assay, LoVo; format: cell-based, human; settings: Homo sapiens, 72 h, Colon, 3 days culture
Description: as §2

Jurkat T cell = experiment: MTT cell viability assay, Jurkat T cell; format: cell-based, human; settings: Homo sapiens, 72 h, Leukemia, 3 days culture
Description: as §2

[2] = test system: LNCaP prostate cancer cells; experiment: Lipogenesis: incorporation of 2-14C-labeled acetate into cellular lipids; format: cell-based; settings: Homo sapiens, 5 h, 2-14C-acetate incorporation
Description: To investigate the ability of Icaritin and Desmethylicaritin to inhibit lipogenesis, LNCaP prostate cancer cells were treated with different concentrations of Icaritin and Desmethylicaritin for 5 h, and incorporation of 2-^14C-labeled acetate into cellular lipids was quantitated. Both of Icaritin and Desmethylicaritin inhibited lipogenesis by more than 50% at a concentration of 0.5 uM. Higher concentrations further reduced lipogenesis in a dose-dependent way. A further decline was observed after 24 h of exposure.

estrogen receptor = settings: mediated by the estrogen receptor; cited from earlier work
SN12C = experiment: MTT cell viability assay, SN12C; format: cell-based, human; settings: Homo sapiens, 72 h, Kidney, 3 days culture
Description: as §2

NCI-H23 = experiment: MTT cell viability assay, NCI-H23; format: cell-based, human; settings: Homo sapiens, 72 h, NCI-H23, Lung, 3 days culture
Description: as §2

MCF-7 = experiment: MTT cell viability assay, MCF-7; format: cell-based, human; settings: Homo sapiens, MCF7, 72 h, MCF-7, Breast, 3 days culture
Description: as §2

MDA-MB-231 = experiment: MTT cell viability assay, MDA-MB-231; format: cell-based, human; settings: Homo sapiens, 72 h, MDA-MB-231, Breast, 3 days culture
Description: as §2

BT-549 = experiment: MTT cell viability assay, BT-549; format: cell-based, human; settings: Homo sapiens, 72 h, BT-549, Breast, 3 days culture
Description: as §2

COc1ccc(-c2oc3c(CC=C(C)C)c(O)cc(O)c3c(=O)c2O)cc1 [Icaritin]
human lung cancer cell growth in vivo (human lung cancer): strongly inhibiting | IC50 (SK-MEL-5): 9.9 µM | IC50 (LNCAP): 5.3 µM | IC50 (IGROV1): 10.9 µM | IC50 (Raji): 5.4 µM | IC50 (Caki-1): 7 µM | IC50 (HCT-116): 6.4 µM | IC50 (MCF-10a; Homo sapiens, 72 h, MCF-10a, Normal breast epithelial cells, 3 days culture, MTT): > 50 µM | sensitivity of normal human mammary gland epithelial cells (MCF10A) (MCF-10a; cells grew well at 50 uM): not sensitive | IC50 (PC3): 9.4 µM | IC50 (D145): 9.3 µM | IC50 (ACHN): 9.5 µM | synthesis of cholesterol ([1]; LNCaP and MDA-MB-231 cells): decreased | synthesis of phospholipids and of triglycerides ([1]; LNCaP cells and MDA-MB-231 cells): affected | IC50 (CCL-247): 16.5 µM | IC50 (G-361): 6.9 µM | IC50 (MDA-MB-435): 10.2 µM | human prostate cancer cell growth in vivo (human prostate cancer): strongly inhibiting | IC50 (HT29): 15.3 µM | IC50 (LoVo): 10.3 µM | IC50 (Jurkat T cell): 5.1 µM | inhibition at 0.5 µM [2]: > 50% | estrogenic effect (estrogen receptor): week phytoestrogens | IC50 (SN12C): 15.8 µM | IC50 (NCI-H23): 6 µM | IC50 (MCF-7): 18.2 µM | IC50 (MDA-MB-231): 5.3 µM | IC50 (BT-549): 8 µM
